Test results published in PubChem BioAssay AID330 (DTP/NCI, 2004).
Where “and” joins values, the source holds several entries; their conditions need not be identical. Identical values can stand only once. Inconclusive results and toxic doses are left out. Peptide text beside a SMILES is read from it. * marks the point of attachment. Propionyl = CCC(=O)*; Bn = c1ccc(C*)cc1

Test system: P388 leukemia ip, CD2F1 mice, survival T/C
Experiment: NCI In Vivo Anticancer Drug Screen. Data for tumor model P388 Leukemia (intraperitoneal) in CD2F1 (CDF1) mice
Conditions: endpoint: median survival time, higher = longer survival
Method in brief: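 Mice carrying the transplanted tumor received test compound or vehicle. Survival was recorded in each group, and the value is the treated-group measurement divided by that of the vehicle-treated control group.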

[1] = dose: 100.0 mg/kg/injection, schedule: Q01DX001 (ip), vehicle: saline
[2] = dose: 200.0 mg/kg/injection, schedule: Q01DX001 (ip), vehicle: saline
[3] = dose: 50.0 mg/kg/injection, schedule: Q01DX005 (ip), vehicle: Klucel (hydroxypropylcellulose) (HPC)
[4] = dose: 100.0 mg/kg/injection, schedule: Q01DX005 (ip), vehicle: Klucel (hydroxypropylcellulose) (HPC)
[5] = dose: 200.0 mg/kg/injection, schedule: Q01DX005 (ip), vehicle: Klucel (hydroxypropylcellulose) (HPC)
[6] = dose: 60.0 mg/kg/injection, schedule: Q01DX005 (ip), vehicle: saline with Tween-80
[7] = dose: 120.0 mg/kg/injection, schedule: Q01DX005 (ip), vehicle: saline with Tween-80
[8] = dose: 240.0 mg/kg/injection, schedule: Q01DX005 (ip), vehicle: saline with Tween-80
[9] = dose: 50.0 mg/kg/injection, schedule: Q01DX005 (ip), vehicle: saline with Tween-80
[10] = dose: 200.0 mg/kg/injection, schedule: Q01DX005 (ip), vehicle: saline with Tween-80
[11] = dose: 50.0 mg/kg/injection, schedule: Q01DX009 (ip), vehicle: saline with Tween-80
[12] = dose: 100.0 mg/kg/injection, schedule: Q01DX009 (ip), vehicle: saline with Tween-80
[13] = dose: 200.0 mg/kg/injection, schedule: Q01DX009 (ip), vehicle: saline with Tween-80

With `O=C1c2cccc(NCC3CO3)c2C(=O)c2cccc(NCC3CO3)c21` (stereo not drawn) the T/C (dose: 0.75 mg/kg/injection, schedule: Q01DX005 (ip), vehicle: Klucel (hydroxypropylcellulose) (HPC)) was 99 % of control, the T/C (dose: 1.5 mg/kg/injection, schedule: Q01DX005 (ip), vehicle: Klucel (hydroxypropylcellulose) (HPC)) was 107 % of control and the T/C (dose: 3.0 mg/kg/injection, schedule: Q01DX005 (ip), vehicle: Klucel (hydroxypropylcellulose) (HPC)) was 100 % of control. The T/C (dose: 6.0 mg/kg/injection, schedule: Q01DX005 (ip), vehicle: Klucel (hydroxypropylcellulose) (HPC)) was 96 % of control.

For `C/C=C1/CN2CCC34c5ccccc5N(C)C23C2CC1C4(C(=O)OC)C(OC(C)=O)O2` (stereo not drawn), the T/C (dose: 9.25 mg/kg/injection, schedule: Q01DX005 (ip), vehicle: saline + Tween-80 + alcohol) was 96 % of control, the T/C (dose: 18.5 mg/kg/injection, schedule: Q01DX005 (ip), vehicle: saline + Tween-80 + alcohol) was 106 % of control and the T/C (dose: 37.0 mg/kg/injection, schedule: Q01DX005 (ip), vehicle: saline + Tween-80 + alcohol) was 112 % of control. For the same molecule, the T/C (dose: 74.0 mg/kg/injection, schedule: Q01DX005 (ip), vehicle: saline + Tween-80 + alcohol) was 100 % of control.

`OC(c1cccnc1)C(CCc1ccccn1)c1ccccn1` (stereo not drawn) was tested, and the T/C (dose: 100.0 mg/kg/injection, schedule: Q04DX003 (ip), vehicle: saline) was 102 % of control, the T/C (dose: 200.0 mg/kg/injection, schedule: Q04DX003 (ip), vehicle: saline) was 101 % of control and the T/C (dose: 400.0 mg/kg/injection, schedule: Q04DX003 (ip), vehicle: saline) was 91 % of control.

With `Nc1nc2c(c(=O)[nH]1)NC(CN(C=O)c1ccc(C(=O)NC(CCC(=O)O)C(=O)O)cc1)CC2` (stereo not drawn) the T/C (dose: 50.0 mg/kg/injection, schedule: Q01DX001 (ip), vehicle: saline) was 99 % of control, the T/C [1] was 100 % of control and the T/C [2] was 91 % of control.

For `COC(c1ccccc1)C1(O)CCN(C)CC1` (stereo not drawn), the T/C (dose: 72.0 mg/kg/injection, schedule: Q04DX002 (ip), vehicle: Klucel (hydroxypropylcellulose) (HPC)) was 98 % of control, the T/C (dose: 144.0 mg/kg/injection, schedule: Q04DX002 (ip), vehicle: Klucel (hydroxypropylcellulose) (HPC)) was 97 % of control and the T/C (dose: 288.0 mg/kg/injection, schedule: Q04DX002 (ip), vehicle: Klucel (hydroxypropylcellulose) (HPC)) was 98 % of control.

For `CC(=NCCCCN=C(C)c1cc(C)cc(Br)c1O)c1cc(C)cc(Br)c1O.[Co]`, the T/C (dose: 6.25 mg/kg/injection, schedule: Q01DX005 (ip), vehicle: Klucel (hydroxypropylcellulose) (HPC)) was 99 % of control and 104 % of control, the T/C (dose: 12.5 mg/kg/injection, schedule: Q01DX005 (ip), vehicle: Klucel (hydroxypropylcellulose) (HPC)) was 100 % of control and 106 % of control and the T/C (dose: 25.0 mg/kg/injection, schedule: Q01DX005 (ip), vehicle: Klucel (hydroxypropylcellulose) (HPC)) was 101 % of control and 109 % of control and 283 % of control. For the same molecule, the T/C [3] was 98 % of control and 109 % of control and 283 % of control, the T/C [4] was 106 % of control and 97 % of control and the T/C [5] was 97 % of control.

For `C/C(=C\C(=O)Nc1ccc(S(=O)(=O)F)cc1)c1ccc([N+](=O)[O-])cc1`, the T/C [6] was 100 % of control, the T/C [7] was 102 % of control and the T/C [8] was 90 % of control.

With `CCCCCCCCCCCC(O)CCCC(O)CC(O)CC1CC2CC(CC(=O)O2)O1` (stereo not drawn) the T/C (dose: 4.0 mg/kg/injection, schedule: Q01DX009 (ip), vehicle: Klucel (hydroxypropylcellulose) (HPC)) was 100 % of control, the T/C (dose: 8.0 mg/kg/injection, schedule: Q01DX009 (ip), vehicle: Klucel (hydroxypropylcellulose) (HPC)) was 99 % of control and the T/C (dose: 16.0 mg/kg/injection, schedule: Q01DX009 (ip), vehicle: Klucel (hydroxypropylcellulose) (HPC)) was 95 % of control. For the same molecule, the T/C (dose: 32.0 mg/kg/injection, schedule: Q01DX009 (ip), vehicle: Klucel (hydroxypropylcellulose) (HPC)) was 95 % of control and the T/C (dose: 64.0 mg/kg/injection, schedule: Q01DX009 (ip), vehicle: Klucel (hydroxypropylcellulose) (HPC)) was 94 % of control.

In the case of `O=C1c2ccccc2C(=O)N1c1ccccc1Br`, the T/C [3] is reported as 100 % of control, the T/C [4] is reported as 97 % of control and the T/C [5] is reported as 101 % of control.

With `COc1ccc(Br)cc1C(Nc1nncs1)Nc1nncs1` the T/C (dose: 30.0 mg/kg/injection, schedule: Q01DX005 (ip), vehicle: saline with Tween-80) was 93 % of control, the T/C [6] was 87 % of control and 89 % of control and the T/C [7] was 92 % of control. For the same molecule, the T/C [8] was 90 % of control.

In the case of `Cc1ccc(OP(=O)(Oc2ccc(C)cc2)Oc2ccc(C)cc2)cc1.Cc1ccc(OP(=O)(Oc2ccc(C)cc2)Oc2ccc(C)cc2)cc1.Cc1ccc(OP(=O)(Oc2ccc(C)cc2)Oc2ccc(C)cc2)cc1.Cc1ccc(OP(=O)(Oc2ccc(C)cc2)Oc2ccc(C)cc2)cc1.[Mn+2].[O-][Cl+3]([O-])([O-])O`, the T/C (dose: 10.0 mg/kg/injection, schedule: Q01DX001 (ip), vehicle: Klucel (hydroxypropylcellulose) (HPC)) is reported as 101 % of control, the T/C (dose: 20.0 mg/kg/injection, schedule: Q01DX001 (ip), vehicle: Klucel (hydroxypropylcellulose) (HPC)) is reported as 94 % of control and the T/C (dose: 40.0 mg/kg/injection, schedule: Q01DX001 (ip), vehicle: Klucel (hydroxypropylcellulose) (HPC)) is reported as 99 % of control.

With `CCNC1CC(C)(O)Cc2cc3c(c(O)c21)C(=O)c1c(O)cc2c(c1C3=O)OC1OC2(C)C(O)C(N(C)C)C1O` (stereo not drawn) the T/C (dose: 6.25 mg/kg/injection, schedule: Q01DX009 (ip), vehicle: other) was 123 % of control, the T/C (dose: 25.0 mg/kg/injection, schedule: Q01DX009 (ip), vehicle: other) was 154 % of control and the T/C (dose: 50.0 mg/kg/injection, schedule: Q01DX009 (ip), vehicle: other) was 120 % of control.

In the case of `CCCC(=O)C1C(c2ccccc2)CC(=O)C(CC)C1c1ccccc1` (stereo not drawn), the T/C (dose: 12.5 mg/kg/injection, schedule: Q01DX005 (ip), vehicle: saline with Tween-80) is reported as 90 % of control, the T/C (dose: 25.0 mg/kg/injection, schedule: Q01DX005 (ip), vehicle: saline with Tween-80) is reported as 95 % of control and the T/C [9] is reported as 88 % of control and 90 % of control. The T/C [10] was 88 % of control.

For `O=C1c2ccccc2-n2c1nc1ccccc1c2=O`, the T/C [9] was 102 % of control, the T/C (dose: 100.0 mg/kg/injection, schedule: Q01DX005 (ip), vehicle: saline with Tween-80) was 100 % of control and the T/C [10] was 107 % of control.

For `C=CCC(C(=C)Sc1ccccc1)S(=O)(=O)c1ccccc1` (stereo not drawn), the T/C (dose: 100.0 mg/kg/injection, schedule: Q04DX002 (ip), vehicle: saline with Tween-80) was 115 % of control, the T/C (dose: 200.0 mg/kg/injection, schedule: Q04DX002 (ip), vehicle: saline with Tween-80) was 109 % of control and the T/C (dose: 400.0 mg/kg/injection, schedule: Q04DX002 (ip), vehicle: saline with Tween-80) was 105 % of control.

`O=C1OC(=O)C2CC=CCC12` (stereo not drawn) was tested, and the T/C [11] was 95 % of control, the T/C [12] was 93 % of control and the T/C [13] was 100 % of control.

With `CC1(C)N=C(N)N=C(N)N1c1ccc(CCc2ccc(S(=O)(=O)F)cc2)c(Cl)c1` the T/C (dose: 25.0 mg/kg/injection, schedule: Q04DX003 (ip), vehicle: saline with Tween-80) was 118 % of control, the T/C (dose: 33.0 mg/kg/injection, schedule: Q04DX003 (ip), vehicle: saline sonified) was 118 % of control and the T/C (dose: 50.0 mg/kg/injection, schedule: Q04DX003 (ip), vehicle: saline sonified) was 118 % of control. For the same molecule, the T/C (dose: 100.0 mg/kg/injection, schedule: Q04DX003 (ip), vehicle: saline with Tween-80) was 113 % of control.

`O=C(O)Cc1nn[nH]n1` was tested, and the T/C (dose: 100.0 mg/kg/injection, schedule: Q04DX003 (ip), vehicle: Klucel (hydroxypropylcellulose) (HPC)) was 107 % of control and the T/C (dose: 200.0 mg/kg/injection, schedule: Q04DX003 (ip), vehicle: Klucel (hydroxypropylcellulose) (HPC)) was 108 % of control.

With `O=P1(NNc2ncccn2)SC(NN=C2CCCCC2)=NC12CCCCC2` (stereo not drawn) the T/C (dose: 7.5 mg/kg/injection, schedule: Q01DX005 (ip), vehicle: Klucel (hydroxypropylcellulose) (HPC)) was 100 % of control, the T/C (dose: 15.0 mg/kg/injection, schedule: Q01DX005 (ip), vehicle: Klucel (hydroxypropylcellulose) (HPC)) was 95 % of control and the T/C (dose: 30.0 mg/kg/injection, schedule: Q01DX005 (ip), vehicle: Klucel (hydroxypropylcellulose) (HPC)) was 95 % of control. For the same molecule, the T/C (dose: 60.0 mg/kg/injection, schedule: Q01DX005 (ip), vehicle: Klucel (hydroxypropylcellulose) (HPC)) was 100 % of control.

In the case of `C=C1CC2(CC(C(=C)C)CCC2C)OC1=O` (stereo not drawn), the T/C [1] is reported as 101 % of control, the T/C [2] is reported as 99 % of control and the T/C (dose: 400.0 mg/kg/injection, schedule: Q01DX001 (ip), vehicle: saline) is reported as 102 % of control.

With `CCC(=O)NC(CSCc1ccccc1)C(=O)NC(CCC(=O)OC)C(=O)OC` (stereo not drawn) (Propionyl-Cys(Bn)-Glu(OMe)-OMe; configuration not given here) the T/C [11] was 110 % of control, the T/C [12] was 100 % of control and the T/C [13] was 97 % of control.
